Molecules are shown by their SMILES. Where two headings read alike, the source gives them in different places.

The target in experiment [1] is Tb-labeled inactive PDGFRβ (Homo sapiens (Human), UniProt P09619). Put plainly: PDGFRβ LanthaScreen Assay. To be noted: read-out: PDGFR Lantha IC50. Type of experiment: binding. For orientation: Time-resolved FRET reads energy transfer from a long-lived donor to a nearby acceptor.
In experiment [2] the target is PDGFRβ (Rattus norvegicus (Rat), UniProt Q05030). The experiment in a line: PDGFRβ Cellular Assay (PDGFRb P-Y751 HTRF in A10 cells stimulated with PDGF-BB). The format is cell-based. The method, boiled down: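 Phospho-Y751 PDGFRβ was measured by HTRF in lysates of A10 rat cells. Cells received compound for 3 hours before PDGF-BB stimulation (100 ng/mL working stock).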
Sequence of PDGFRβ (Q05030 32-1097): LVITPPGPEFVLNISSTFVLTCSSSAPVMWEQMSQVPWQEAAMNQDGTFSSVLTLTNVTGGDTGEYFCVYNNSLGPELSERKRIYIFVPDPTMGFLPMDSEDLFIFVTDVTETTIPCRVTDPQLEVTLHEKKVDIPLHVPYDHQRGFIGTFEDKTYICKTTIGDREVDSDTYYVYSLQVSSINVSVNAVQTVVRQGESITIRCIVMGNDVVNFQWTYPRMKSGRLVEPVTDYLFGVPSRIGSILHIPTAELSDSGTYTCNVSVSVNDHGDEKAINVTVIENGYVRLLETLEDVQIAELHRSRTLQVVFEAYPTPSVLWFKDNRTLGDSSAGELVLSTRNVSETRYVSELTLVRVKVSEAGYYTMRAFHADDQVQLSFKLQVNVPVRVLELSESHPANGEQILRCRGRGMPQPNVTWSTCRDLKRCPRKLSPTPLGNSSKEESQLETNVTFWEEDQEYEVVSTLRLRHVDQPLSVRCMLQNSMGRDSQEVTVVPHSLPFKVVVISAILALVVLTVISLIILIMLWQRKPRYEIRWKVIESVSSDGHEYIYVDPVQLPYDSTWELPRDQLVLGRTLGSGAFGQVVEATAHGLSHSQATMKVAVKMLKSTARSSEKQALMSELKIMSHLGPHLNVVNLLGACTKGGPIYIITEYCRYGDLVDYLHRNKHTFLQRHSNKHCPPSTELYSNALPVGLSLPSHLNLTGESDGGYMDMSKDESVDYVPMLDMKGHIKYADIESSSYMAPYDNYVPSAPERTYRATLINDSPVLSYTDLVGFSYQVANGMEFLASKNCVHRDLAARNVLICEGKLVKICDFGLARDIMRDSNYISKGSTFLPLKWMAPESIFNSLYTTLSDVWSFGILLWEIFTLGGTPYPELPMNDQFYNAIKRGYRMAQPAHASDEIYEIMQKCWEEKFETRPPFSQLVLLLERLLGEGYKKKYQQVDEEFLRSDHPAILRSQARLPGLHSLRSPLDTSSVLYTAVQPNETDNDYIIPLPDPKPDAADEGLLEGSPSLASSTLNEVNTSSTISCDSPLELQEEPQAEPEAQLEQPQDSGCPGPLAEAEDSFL

Sequence of Tb-labeled inactive PDGFRβ (P09619 33-1106): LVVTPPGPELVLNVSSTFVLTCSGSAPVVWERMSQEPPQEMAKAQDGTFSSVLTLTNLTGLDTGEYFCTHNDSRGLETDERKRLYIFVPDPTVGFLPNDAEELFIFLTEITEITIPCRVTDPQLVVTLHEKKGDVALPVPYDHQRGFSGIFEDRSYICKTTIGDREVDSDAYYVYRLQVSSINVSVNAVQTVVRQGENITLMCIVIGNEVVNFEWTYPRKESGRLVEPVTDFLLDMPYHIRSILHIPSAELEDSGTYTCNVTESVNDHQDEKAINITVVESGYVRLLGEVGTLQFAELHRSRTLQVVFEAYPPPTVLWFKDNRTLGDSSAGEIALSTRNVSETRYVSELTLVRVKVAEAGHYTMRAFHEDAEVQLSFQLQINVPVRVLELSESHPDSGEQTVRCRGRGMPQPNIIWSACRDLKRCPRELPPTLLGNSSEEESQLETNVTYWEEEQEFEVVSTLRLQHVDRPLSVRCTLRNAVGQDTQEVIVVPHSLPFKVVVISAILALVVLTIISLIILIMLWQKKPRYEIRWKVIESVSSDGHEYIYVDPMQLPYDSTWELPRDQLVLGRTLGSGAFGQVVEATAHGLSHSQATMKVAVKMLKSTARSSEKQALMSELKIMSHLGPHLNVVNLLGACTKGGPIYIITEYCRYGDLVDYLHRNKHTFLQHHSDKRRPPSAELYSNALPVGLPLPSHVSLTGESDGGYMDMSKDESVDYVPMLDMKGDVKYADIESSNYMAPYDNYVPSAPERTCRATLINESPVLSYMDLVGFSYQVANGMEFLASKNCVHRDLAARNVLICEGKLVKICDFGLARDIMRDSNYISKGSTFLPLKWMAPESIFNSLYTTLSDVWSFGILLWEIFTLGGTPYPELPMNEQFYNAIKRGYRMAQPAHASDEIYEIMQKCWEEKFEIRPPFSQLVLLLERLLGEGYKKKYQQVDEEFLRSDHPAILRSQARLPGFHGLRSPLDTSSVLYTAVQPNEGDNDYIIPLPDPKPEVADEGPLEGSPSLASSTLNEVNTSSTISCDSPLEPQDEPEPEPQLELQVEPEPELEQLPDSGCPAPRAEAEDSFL

For `Cc1ncc(NC(=O)CN2C[C@H](C)O[C@@H](C)C2)cc1NC(=O)c1cnn2cc(-c3c(C)n[nH]c3C)sc12` (relative stereo) [Example 373, 2-(3,5-dimethyl-1H-pyrazol-4-yl)-N-(5-(2-(trans-2,6-dimethylmorpholino)acetamido)-2-methylpyridin-3-yl)pyrazolo[5,1-b]thiazole-7-carboxamide], the IC50 (as a rule, the concentration that gives 50% inhibition) came out at 7 nM in experiment [1] and 56.7 nM in experiment [2] (read-out: PDGFR Cellular IC50).

As to `COCC1CN(CC(=O)Nc2cnc(C)c(NC(=O)c3cnn4cc(-c5cnn(C)c5)sc34)c2)CC(C)(C)O1` (stereo not shown) [Example 383, N-(5-(2-(6-(methoxymethyl)-2,2-dimethylmorpholino)acetamido)-2-methylpyridin-3-yl)-2-(1-methyl-1H-pyrazol-4-yl)pyrazolo[5,1-b]thiazole-7-carboxamide], the IC50 in experiment [1] stood at 7.8 nM; in experiment [2] (read-out: PDGFR Cellular IC50) it was 15 nM.

Turning to `Cc1ncc(NC(=O)CN2C[C@H](C)O[C@@H](C)C2)cc1NC(=O)c1cnn2cc(-c3cnn(C4CC4)c3)sc12` (relative stereo) [Example 382, 2-(1-cyclopropyl-1H-pyrazol-4-yl)-N-(5-(2-(trans-2,6-dimethylmorpholino)acetamido)-2-methylpyridin-3-yl)pyrazolo[5,1-b]thiazole-7-carboxamide], the IC50 in experiment [1] turned out to be 5.3 nM; in experiment [2] (read-out: PDGFR Cellular IC50), 7.6 nM.

In the case of `COCCn1cc(-c2cn3ncc(C(=O)Nc4cc(NC(=O)CN5CCCC56CCC6)cnc4C)c3s2)cn1` [Example 332, N-(5-(2-(5-azaspiro[3.4]octan-5-yl)acetamido)-2-methylpyridin-3-yl)-2-(1-(2-methoxyethyl)-1H-pyrazol-4-yl)pyrazolo[5,1-b]thiazole-7-carboxamide], the results for the IC50 in experiment [1] and in experiment [2] (read-out: PDGFR Cellular IC50) were 4.1 nM and 4.5 nM, respectively.

For `COc1ncccc1-c1cn2ncc(C(=O)Nc3cc(NC(=O)CN4C[C@H](C)O[C@@H](C)C4)cnc3C)c2s1` (relative stereo) [Example 368, N-(5-(2-(trans-2,6-dimethylmorpholino)acetamido)-2-methylpyridin-3-yl)-2-(2-methoxypyridin-3-yl)pyrazolo[5,1-b]thiazole-7-carboxamide], the results for the IC50 in experiment [1] and in experiment [2] (read-out: PDGFR Cellular IC50) were 2.4 nM and 3.7 nM, respectively.

Take `COCCn1cc(-c2cn3ncc(C(=O)Nc4cc(NC(=O)CN5CCCC5)cnc4C)c3s2)cn1` [Example 337, 2-(1-(2-methoxyethyl)-1H-pyrazol-4-yl)-N-(2-methyl-5-(2-(pyrrolidin-1-yl)acetamido)pyridin-3-yl)pyrazolo[5,1-b]thiazole-7-carboxamide]: the IC50 in experiment [1] was determined as 46.2 nM; in experiment [2] (read-out: PDGFR Cellular IC50), 24.9 nM.

For the molecule `COc1ncccc1-c1cn2ncc(C(=O)Nc3cc(NC(=O)CN4C[C@H](C)O[C@@H](C)C4)cnc3C)c2s1` (relative stereo) [Example 384, N-(5-(2-(trans-2,6-dimethylmorpholino)acetamido)-2-methylpyridin-3-yl)-2-(2-methoxypyridin-3-yl)pyrazolo[5,1-b]thiazole-7-carboxamide], the IC50 is 2.3 nM in experiment [1] and 4.3 nM in experiment [2] (read-out: PDGFR Cellular IC50).

`Cc1ncc(NC(=O)C[C@H]2CCCN2C(C)C)cc1NC(=O)c1cnn2cc(-c3cnn4c3OCCC4)sc12` [Example 351, (R)-2-(6,7-dihydro-5H-pyrazolo[5,1-b][1,3]oxazin-3-yl)-N-(5-(2-(1-isopropylpyrrolidin-2-yl)acetamido)-2-methylpyridin-3-yl)pyrazolo[5,1-b]thiazole-7-carboxamide]: the IC50 in experiment [1] was 3.1 nM; in experiment [2] (PDGFR Cellular IC50) it was 17.7 nM.

In the case of `Cc1ncc(NC(=O)CN2CCCC23CCC3)cc1NC(=O)c1cnn2cc(-c3cnn(CCO)c3)sc12` [Example 29, N-(5-(2-(5-azaspiro[3.4]octan-5-yl)acetamido)-2-methylpyridin-3-yl)-2-(1-(2-hydroxyethyl)-1H-pyrazol-4-yl)pyrazolo[5,1-b]thiazole-7-carboxamide], the IC50 in experiment [1] came out at 3.4 nM; in experiment [2] (read-out: PDGFR Cellular IC50), 5 nM.

Turning to `Cc1ncc(S(=O)(=O)NCCN2CCCC2(C)C)cc1NC(=O)c1cnn2cc(-c3cnn(C)c3)sc12` [Example 359, N-(5-(N-(2-(2,2-dimethylpyrrolidin-1-yl)ethyl)sulfamoyl)-2-methylpyridin-3-yl)-2-(1-methyl-1H-pyrazol-4-yl)pyrazolo[5,1-b]thiazole-7-carboxamide], the IC50 stood at 451 nM in experiment [1] and 365 nM in experiment [2] (read-out: PDGFR Cellular IC50).

As for `COc1ncccc1-c1cn2ncc(C(=O)Nc3cc(NC(=O)CN4CC(F)C4)cnc3C)c2s1` [Example 402, N-(5-(2-(3-fluoroazetidin-1-yl)acetamido)-2-methylpyridin-3-yl)-2-(2-methoxypyridin-3-yl)pyrazolo[5,1-b]thiazole-7-carboxamide], the IC50 was 2.7 nM in experiment [1] and 5.4 nM in experiment [2] (read-out: PDGFR Cellular IC50).

Take `COc1cccc(-c2cn3ncc(C(=O)Nc4cc(NC(=O)CN5CC(C)(C)C5)cnc4C)c3s2)n1` [Example 394, N-(5-(2-(3,3-dimethylazetidin-1-yl)acetamido)-2-methylpyridin-3-yl)-2-(6-methoxypyridin-2-yl)pyrazolo[5,1-b]thiazole-7-carboxamide]: the figures for the IC50 in experiment [1] and in experiment [2] (read-out: PDGFR Cellular IC50) were 1.2 nM and 1.8 nM, respectively.

Turning to `Cc1ncc(NC(=O)CN2C[C@H](C)O[C@@H](C)C2)cc1NC(=O)c1cnn2cc(-c3cnn4c3OCCC4)sc12` (relative stereo) [Example 375, 2-(6,7-dihydro-5H-pyrazolo[5,1-b][1,3]oxazin-3-yl)-N-(5-(2-(trans-2,6-dimethylmorpholino)acetamido)-2-methylpyridin-3-yl)pyrazolo[5,1-b]thiazole-7-carboxamide], the figures for the IC50 in experiment [1] and in experiment [2] (read-out: PDGFR Cellular IC50) were 4.5 nM and 10.2 nM, respectively.

In the case of `COCCn1cc(-c2cn3ncc(C(=O)Nc4cc(NC(=O)CN5CCCC6(CC6)C5)cnc4C)c3s2)cn1` [Example 335, N-(5-(2-(5-azaspiro[2.5]octan-5-yl)acetamido)-2-methylpyridin-3-yl)-2-(1-(2-methoxyethyl)-1H-pyrazol-4-yl)pyrazolo[5,1-b]thiazole-7-carboxamide], the IC50 in experiment [1] is 3 nM; in experiment [2] (read-out: PDGFR Cellular IC50), 3.5 nM.

As for `COC/C=C/c1cn2ncc(C(=O)Nc3cc(NC(=O)CN4C[C@H](C)O[C@@H](C)C4)cnc3C)c2s1` (relative stereo) [Example 367, N-(5-(2-(trans-2,6-dimethylmorpholino)acetamido)-2-methylpyridin-3-yl)-2-((E)-3-methoxyprop-1-en-1-yl)pyrazolo[5,1-b]thiazole-7-carboxamide], the results for the IC50 in experiment [1] and in experiment [2] (PDGFR Cellular IC50) were 17.3 nM and 18.6 nM, respectively.

For `Cc1ncc(NC(=O)CN2C[C@H](C)O[C@@H](C)C2)cc1NC(=O)c1cnn2cc(-c3cc[nH]n3)sc12` (relative stereo) [Example 374, N-(5-(2-(trans-2,6-dimethylmorpholino)acetamido)-2-methylpyridin-3-yl)-2-(1H-pyrazol-3-yl)pyrazolo[5,1-b]thiazole-7-carboxamide], the IC50 in experiment [1] came out at 4 nM; in experiment [2] (read-out: PDGFR Cellular IC50) it was 41.3 nM.

As for `Cc1ncc(NS(=O)(=O)CCN2CC3CCC2CC3)cc1NC(=O)c1cnn2cc(-c3cnn(C)c3)sc12` [Example 358, N-(5-((2-(2-azabicyclo[2.2.2]octan-2-yl)ethyl)sulfonamido)-2-methylpyridin-3-yl)-2-(1-methyl-1H-pyrazol-4-yl)pyrazolo[5,1-b]thiazole-7-carboxamide], the figures for the IC50 in experiment [1] and in experiment [2] (read-out: PDGFR Cellular IC50) were 1840 nM and 941 nM, respectively.

Regarding `Cc1ncc(NC(=O)CN2C[C@H](CO)OC(C)(C)C2)cc1NC(=O)c1cnn2cc(-c3cnn(C)c3)sc12` [Example 376, (R)—N-(5-(2-(6-(hydroxymethyl)-2,2-dimethylmorpholino)acetamido)-2-methylpyridin-3-yl)-2-(1-methyl-1H-pyrazol-4-yl)pyrazolo[5,1-b]thiazole-7-carboxamide], the IC50 in experiment [1] stood at 5.6 nM; in experiment [2] (read-out: PDGFR Cellular IC50) it was 154 nM.

Turning to `Cc1ncc(NC(=O)CN2CCCC[C@H]2C)cc1NC(=O)c1cnn2cc(-c3cnn(CCO)c3)sc12` [Example 33, (R)-2-(1-(2-hydroxyethyl)-1H-pyrazol-4-yl)-N-(2-methyl-5-(2-(2-methyl-piperidin-1-yl)acetamido)pyridin-3-yl)pyrazolo[5,1-b]thiazole-7-carboxamide], the IC50 in experiment [1] stood at 9.3 nM; in experiment [2] (PDGFR Cellular IC50), 10.1 nM.

As to `COCCn1cc(-c2cn3ncc(C(=O)Nc4cc(NC(=O)CN5CC6CCC5CC6)cnc4C)c3s2)cn1` [Example 331, N-(5-(2-(2-azabicyclo[2.2.2]octan-2-yl)acetamido)-2-methylpyridin-3-yl)-2-(1-(2-methoxyethyl)-1H-pyrazol-4-yl)pyrazolo[5,1-b]thiazole-7-carboxamide], the values for the IC50 in experiment [1] and in experiment [2] (read-out: PDGFR Cellular IC50) were 3.3 nM and 2.7 nM, respectively.

As to `COCCn1cc(-c2cn3ncc(C(=O)Nc4cc(NC(=O)CN5CCC(C)(C)C5)cnc4C)c3s2)cn1` [Example 336, N-(5-(2-(3,3-dimethylpyrrolidin-1-yl)acetamido)-2-methylpyridin-3-yl)-2-(1-(2-methoxyethyl)-1H-pyrazol-4-yl)pyrazolo[5,1-b]thiazole-7-carboxamide], the IC50 was determined as 3.3 nM in experiment [1] and 3.1 nM in experiment [2] (read-out: PDGFR Cellular IC50).

For the molecule `Cc1ncc(NC(=O)CN2CCC[C@H]2C)cc1NC(=O)c1cnn2cc(-c3cnn(C)c3)sc12` [Example 26, (R)-2-(1-methyl-1H-pyrazol-4-yl)-N-(2-methyl-5-(2-(2-methyl-pyrrolidin-1-yl)acetamido)pyridin-3-yl)pyrazolo[5,1-b]thiazole-7-carboxamide], the IC50 in experiment [1] amounted to 11.7 nM; in experiment [2] (read-out: PDGFR Cellular IC50), 5.9 nM.

As for `Cc1cnn(C)c1-c1cn2ncc(C(=O)Nc3cc(NC(=O)CN4CC(C)(C)C4)cnc3C)c2s1` [Example 389, 2-(1,4-dimethyl-1H-pyrazol-5-yl)-N-(5-(2-(3,3-dimethylazetidin-1-yl)acetamido)-2-methylpyridin-3-yl)pyrazolo[5,1-b]thiazole-7-carboxamide], the figures for the IC50 in experiment [1] and in experiment [2] (read-out: PDGFR Cellular IC50) were 7.5 nM and 3.1 nM, respectively.

The record behind these values is patent US20240109917A1 (ACTELION PHARMACEUTICALS LTD, priority 2020, published 2024).
